What all share (assay type): cell-based
For one assay, the system named is miR-124. Description: Regulation of miR-124 expression in a PBMC in vitro model (qPCR). As to conditions: 5 μM test compound, 24 h, human PBMC stimulated with PHA-L and IL-2; miR-191 internal reference; read-out: Relative expression of miR-124, fold change compared with DMSO-treated cells. The protocol: Pharmacological Activity Test: Regulation of miR-124 Expression by the Quinoline Derivatives in a PBMC In Vitro Model
• a. human PBMC cells • b. PHA-L • c. IL-2 • d. mirVana™ miRNA Extraction kit • e. TaqMan Advanced miRNA cDNA Synthesis Kit • f. TaqMan Fast Gene Expression Master Mix • g. TaqMan Advanced miRNA Assay (mir191) • h. TaqMan Advanced miRNA Assay (mir124)
Human PBMC cells were resuscitated. The cell suspension was transferred to a 75 cm^2 culture flask containing 13 mL of culture medium. The cells were cultured overnight in a 37° C., 5% CO2 incubator. The cell suspension was then collected in a conical flask, centrifuged at 1200 rpm for 5 minutes, and the supernatant was discarded. The cells were resuspended in 1 mL of fresh culture medium, and then the cell clumps were gently blown apart and inoculated into a 6-well plate at a density of 4*10^6 cells/mL. 5 μg/mL PHA-L and 10 ng/mL IL-2 were added to each well. The cells were incubated in the incubator for 48 hours. 5 μM of the test compound was added to each well of a 6-well plate, and 0.1% DMSO was added to the blank control wells, and the plate was incubated at 37° C. for 24 h. Cells were collected, Total RNA was isolated and extracted according to the procedure of the mirVana™ miRNA Extraction Kit, and cDNA was prepared according to the procedure of the TaqMan Advanced miRNA cDNA Synthesis Kit. MiR-191 was used as the internal reference gene for qPCR test.
That is, RNA sample→poly (A) tailing reaction→adapter reaction→reverse transcription (RT) reaction→miR-amplification reaction→qPCR test.
The qPCR procedure includes: 50° C. 2 min; 95° C. 20 s; 95° C. 1 s, a 60° C. 20 s, 40 cycles.
The relative gene expression was calculated using the following formula: ΔCt=Ct (miR-124)−Ct (miR-191)
Relative miRNA expression=2^−ΔCt.
(In general: Quantitative PCR measures a nucleic acid by following its amplification.)

In the next assay the test system is IL-6. The assay can be described thus: Macrophage IL-6 secretion after LPS (ELISA). The note with it: Bone marrow macrophage, compared to 0 μM, mouse bone marrow macrophages, 200 ng/ml LPS, 6 hours, read-out: Inhibition rate of IL-6 at 10 μM concentration. The protocol:
(§1) Pharmacological Activity Test: Regulatory Effect of Quinoline Derivatives on Macrophage IL-6 and TNF-α Secretion
(§2) Mouse bone marrow cells were isolated from the femur and tibia bone marrow of […] mice of 6-8 week old raised under SPF conditions and inoculated in 6-well plates at a density of 1.5*10^6 cells/well/2 mL. 50 ng/mL M-CSF was added to each well and the cells were cultured in a CO2 incubator for 3 days. On the third day, the culture medium was replaced with fresh medium containing 100 ng/mL M-CSF and the culture was continued for 3 days. On the 6th day, the supernatant was removed and the cells were washed once with DPBS. After adding 1 mL of DPBS, the macrophages were harvested using a cell scraper, centrifuged at 400 g for 10 min, and the supernatant was discarded. The cells were resuspended in fresh culture medium containing 50 ng/mL M-CSF, inoculated in a 96-well plate at a density of 2*10^4 cells/well/200 μL, and cultured in a CO2 incubator overnight. 0, 3, 5, […] of the test compound were added to each well (wherein well 0 contains 0.1% DMSO) respectively and incubate in a CO2 incubator for 1 hour. Then 200 ng/ml LPS was added and the cell supernatant was collected after 6 hours of co-culture. ELISA kits were used to detect the secretion levels of IL-6 and TNF-α.

The next assay has as its system TNF-α. The assay can be described thus: Macrophage TNF-α secretion after LPS (ELISA). As to conditions: Bone marrow macrophage, compared to 0 μM, mouse bone marrow macrophages, 200 ng/ml LPS, 6 hours, read-out: Inhibition rate of TNFα at 10 μM concentration. The procedure: as §1, §2
On the technique in general: An ELISA detects its analyte on a solid surface through an enzyme-linked reagent.

Structures are written as SMILES.

Take `Fc1cc(Cl)c2nc(Nc3ccc(C4(C(F)(F)F)CC4)cn3)ccc2c1` [Compound 10, 8-chloro-6-fluoro-N-(5-(1-(trifluoromethyl)cyclopropyl)pyridin-2-yl)quinolin-2-amine]: the fold induction at 5 µM with miR-124 was found to be 6.9.
Still for that read-out and setting: the value for `COc1cc(C2(C(F)(F)F)CC2)ccc1Nc1ccc2cccc(Cl)c2n1` [Compound 8, 8-chloro-N-(2-methoxy-4-(1-(trifluoromethyl)cyclopropyl)phenyl)quinolin-2-amine] was 6; that for `Cc1cc(Nc2ccc3cccc(Cl)c3n2)ncc1C1(C(F)(F)F)CC1` [Compound 13, 8-chloro-N-(4-methyl-5-(1-(trifluoromethyl)cyclopropyl)pyridin-2-yl)quinolin-2-amine] was 5.9; that for `FC(F)(F)C1(c2cnc(Nc3ccc4cccc(Cl)c4n3)nc2)CC1` [Compound 24, 8-chloro-N-(5-(1-(trifluoromethyl)cyclopropyl)pyrimidin-2-yl)quinolin-2-amine] was 1.99.
Same read-out and setting: the value for `N#Cc1cc(Cl)c2nc(Nc3ccc(C4(C(F)(F)F)CC4)cc3)ccc2c1` [Compound 20, 8-chloro-2-((4-(1-(trifluoromethyl)cyclopropyl)phenyl)amino)quinolin-6-carbonitrile] was 15.2; that for `FC(F)(F)C1(c2cnc(Nc3ccc4cccc(Cl)c4n3)cn2)CC1` [Compound 14, 8-chloro-N-(5-(1-(trifluoromethyl)cyclopropyl)Pyrazin-2-yl)quinolin-2-amine] was 8.1.
Same read-out and setting: the value for `FC(F)(F)C1(c2cccc(Nc3ccc4cccc(Cl)c4n3)c2)CC1` [Compound 9, 8-chloro-N-(3-(1-(trifluoromethyl)cyclopropyl)phenyl)quinolin-2-amine] was 4.24; that for `FC(F)(F)C1(c2ccc(Nc3ccc4cccc(Cl)c4n3)cn2)CC1` [Compound 7, 8-chloro-N-(6-(1-(trifluoromethyl)cyclopropyl)pyridine-3-yl)quinolin-2-amine] was 1.8; that for `N#Cc1cc(Cl)c2nc(Nc3ccc(C4(C(F)(F)F)CC4)cn3)ccc2c1` [Compound 19, 8-chloro-2-((5-(1-(trifluoromethyl)cyclopropyl)pyridin-2-yl)amino)quinolin-6-nitrile] was 118.
Regarding `FC(F)C1(c2ccc(Nc3ccc4cccc(Cl)c4n3)cc2)CC1` [Compound 1, 8-chloro-N-(4-(1-(difluoromethyl)cyclopropyl)phenyl)quinolin-2-amine], the values for the inhibition at 10 µM in the assay on IL-6 and in the assay on TNF-α were 81% and 85%, respectively. Moreover, the fold induction at 5 µM with miR-124 turned out to be 1.5.
On to `Fc1cc(Nc2ccc3cccc(Cl)c3n2)ncc1C1(C(F)(F)F)CC1` [Compound 15, 8-chloro-N-(4-fluoro-5-(1-(trifluoromethyl)cyclopropyl)pyridin-2-yl)quinolin-2-amine], for which, in the assay with miR-124, the fold induction at 5 µM is 1.99.
Turning to `FC(F)(F)C1(c2ccc(Nc3ccc4cccc(Cl)c4n3)cc2)CC1` [Compound 4, 8-chloro-N-(4-(1-(trifluoromethyl)cyclopropyl)phenyl)quinolin-2-amine], the inhibition at 10 µM turned out to be 85% in the assay on IL-6 and 84% in the assay with TNF-α. Further, in the assay on miR-124, the fold induction at 5 µM amounted to 15.9.
In the case of `CC(C)(c1ccc(Nc2ccc3cccc(Cl)c3n2)cc1)C(F)(F)F` [Compound 3, 8-chloro-N-(4-(1,1,1-trifluoro-2-methylprop-2-yl)phenyl)quinolin-2-amine], in the assay on miR-124, the fold induction at 5 µM was 7.33.
Still for that read-out and setting: with `CC(C)(c1ccc(Nc2ccc3cccc(Cl)c3n2)cc1)C(F)F` [Compound 22, 8-chloro-N-(4-(1,1-difluoro-2-methylpropan-2-yl)phenyl)quinolin-2-amine] the figure was 1.96; with `FC(F)(F)C1(c2ccnc(Nc3ccc4cccc(Cl)c4n3)c2)CC1` [Compound 6, 8-chloro-N-(4-(1-(trifluoromethyl)cyclopropyl)pyridin-2-yl)quinolin-2-amine], 7.28.
The same measure, in the same setting: with `Fc1cc(Cl)c2nc(Nc3cc(C4(C(F)(F)F)CC4)ccn3)ccc2c1` [Compound 17, 8-chloro-6-fluoro-N-(4-(1-(trifluoromethyl)cyclopropyl)pyridin-2-yl)quinolin-2-amine] the figure was 56.4; with `FC(F)(F)C1(c2ccc(Nc3ccc4cccc(Cl)c4n3)nc2)CC1` [Compound 2, 8-chloro-N-(5-(1-(trifluoromethyl)cyclopropyl)pyridin-2-yl)quinolin-2-amine], 8.35; with `CS(=O)(=O)c1cc(Cl)c2nc(Nc3ccc(C4(C(F)(F)F)CC4)cc3)ccc2c1` [Compound 21], 21.2.

Values taken from US20260216180A1, “QUINOLINE DERIVATIVE COMPOUNDS OR PHARMACEUTICALLY ACCEPTABLE SALT THEREOF, PREPARATION METHOD THEREFOR AND USE THEREOF” (JIANGSU CAREPHAR PHARMACEUTICAL CO.,LTD., priority 2023, published 2026).
